Measurements from patent publication US5030635A, “6-7-dimethoxy-1,2-dihydro-2-arylquinazoline-3-oxides” (Ortho Pharmaceutical Corporation, priority 1990, dated 1991).

Assays:
[1] = test system: myocardial contractile force; assay: Acute In Vivo Cardiotonic Evaluation (myocardial contractile force); parameters: species or system adult mongrel dogs; settings: Canis lupus familiaris, iv, i.v. infusion, anesthetized dogs, vs pretreatment control values, read-out: % Increase In Myocardial Contractile force; for change in vivo at 8.75 mg/kg: 8.75 mpk; for change in vivo at 1.87 mg/kg: 1.87 mpk
Protocol: Pharmacological Activity--Acute In Vivo Cardiotonic Evaluation
Using the procedures described by Alousi, A. A. et al., Circ. Res. 45, 666 (1979), adult mongrel dogs were anesthetized with sodium pentobarbital, and artificially respirated. Arterial pressure was recorded via a femoral artery and the pressure pulse was used to trigger a cardiotachometer for heart rate. Left ventricular pressure was measured with a Millar catheter, and dP/dt was derived. Cardiac output was determined by measuring ascending aortic blood flow with an electromagnetic flow probe, and the myocardial contractile force (CF) was measured with a Walton Brodie strain gauge sutured to the right ventricle. Lead II EKG was also recorded.
A standard dose of dopamine or dobutamine was administered in order to assess myocardial responsiveness. The test compounds were then administered by i.v. infusion and the effects on cardiovascular parameters were determined. The dose of each example compound was either 1.87 mg/kg or 8.75 mg/kg as set forth below in Table 1.
The dose related effects of the compound on myocardial contractile force was compared to pretreatment control values, expressed as a % change and rated for activity. Statistical evaluations were made using the appropriate parametric test against a vehicle control.

[2] = test system: ovalbumin-induced bronchoconstriction; assay: Active Lung Anaphylaxis (inhibition of ovalbumin-induced bronchoconstriction); assay type: in vivo, male Harley guinea pigs; settings: prior to ovalbumin provocation, actively sensitized guinea pigs, percent inhibition of control
Protocol: Pharmacological Activity--Active Lung Anaphylaxis
Using the procedures described by Ritchie, D. M. et al., Agents and Actions 11, 4 (1981), male Harley guinea pigs were actively sensitized, intraperitoneally, with 16 mg alum and 1 mg ovalbumin. Fourteen days later, these animals were anesthetized and their respiration arrested by the administration of succinylcholine. Respiration was maintained at a constant pressure by a miniature Starling pump. Lung overflow changes in pressure were recorded.
Animals were pretreated with indomethacin (10 mg/kg, i.v.), atropine (0.5 mg/kg, i.v.), methysergide (0.1 mg/kg, i.v.), methapyrilene (2.0 mg/kg, i.v.) and arachidonic acid (5.0 mg/kg, i.v.) prior to ovalbumin challenge. […] Indications of drug efficacy were manifested as a substantial reduction in the degree of bronchoconstriction evidenced by control animals.
Bronchoconstriction induced by ovalbumin was measured as a percent of maximum bronchoconstriction (BC) obtained by clamping off the trachea. Percent inhibition of control was determined as follows: [formula]

| Structure (SMILES) | change in vivo at 8.75 mg/kg [1] | % Inhibition of Bronchoconstriction at 50 mpk [2] | change in vivo at 1.87 mg/kg [1] |
| --- | --- | --- | --- |
| COc1cc2c(cc1OC)C(C)=[N+]([O-])C(c1cccs1)N2 (stereo not drawn) [Example 10, 1,2-Dihydro-2-(2-thienyl)-4-methyl-6,7-dimethoxyquinazoline-3-oxide] | 75% | – | – |
| COc1cc2c(cc1OC)C(C)=[N+]([O-])C(c1cccc3c1OCO3)N2 (stereo not drawn) [Example 6, 1,2-Dihydro-2-(2,3-methylenedioxyphenyl)-4-methyl-6,7-dimethoxyquinazoline-3-oxide] | 45% | – | – |
| COc1cc2c(cc1OC)C(C)=[N+]([O-])C(c1ccc(Cl)cc1)N2 (stereo not drawn) [Example 2, 1,2-Dihydro-2-(4-chlorophenyl)-4-methyl-6,7-dimethoxyquinazoline-3-oxide] | 50% | – | – |
| COc1cc2c(cc1OC)C(C)=[N+]([O-])C(c1ccccn1)N2 (stereo not drawn) [Example 12, 1,2-Dihydro-2-(2-pyridyl)-4-methyl-6,7-dimethoxyquinazoline-3-oxide] | 45% | 37.9% | – |
| COc1cc2c(cc1OC)C(C)=[N+]([O-])C(c1ccccc1)N2 (stereo not drawn) [Example 1, 1,2-Dihydro-2-phenyl-4-methyl-6,7-dimethoxy-quinazoline-3-oxide] | 157% | 60.9% | – |
| COc1cc2c(cc1OC)C(C)=[N+]([O-])C(c1ccc(C)cc1)N2 (stereo not drawn) [Example 4, 1,2-Dihydro-2-(4-tolyl)-4-methyl-6,7-dimethoxy-quinazoline-3-oxide] | – | 71.9% | 42% |
| COc1cc2c(cc1OC)C(C)=[N+]([O-])C(c1c(F)c(F)c(F)c(F)c1F)N2 (stereo not drawn) [Example 8, 1,2-Dihydro-2-pentafluorophenyl-4-methyl-6,7-dimethoxyquinazoline-3-oxide] | – | 27.3% | 33% |
| COc1cc2c(cc1OC)C(C)=[N+]([O-])C(c1ccc3c(c1)OCO3)N2 (stereo not drawn) [Example 5, 1,2-Dihydro-2-(3,4-methylenedioxyphenyl)-4-methyl-6,7-dimethoxyquinazoline-3-oxide] | 124% | – | – |
| COc1cc2c(cc1OC)C(C)=[N+]([O-])C(c1cccc(OCc3ccccc3)c1)N2 (stereo not drawn) [Example 7, 1,2-Dihydro-2-(3-benzyloxyphenyl)-4-methyl-6,7-dimethoxyquinazoline-3-oxide] | 20% | 49.5% | – |
| COc1cc2c(cc1OC)C(C)=[N+]([O-])C(c1ccco1)N2 (stereo not drawn) [Example 9, 1,2-Dihydro-2-(2-furyl)-4-methyl-6,7-dimethoxyquinazoline-3-oxide] | 123% | – | – |
| COc1cc2c(cc1OC)C(C)=[N+]([O-])C(c1cccn1C)N2 (stereo not drawn) [Example 11, 1,2-Dihydro-2-(2-(N-methyl)pyrrolo)-4-methyl-6,7-dimethoxyquinazoline-3-oxide] | – | – | 29% |
| COc1ccc(C2Nc3cc(OC)c(OC)cc3C(C)=[N+]2[O-])cc1 (stereo not drawn) [Example 3, 1,2-Dyhydro-2-(4-methoxyphenyl)-4-methyl-6,7-dimethoxyquinazoline-3-oxide] | – | – | 29% |
| COc1cc2c(cc1OC)C(C)=[N+]([O-])C(c1ccncc1)N2 (stereo not drawn) [Example 13, 1,2-Dihydro-2-(4-pyridyl)-4-methyl-6,7-dimethoxyquinazoline-3-oxide] | 29% | – | – |
